Laboratory results reported in patent US11691962B2 (eXIthera Pharmaceuticals, Inc., priority 2018, dated 2023).
Values after ≈ are worked out from the molar mass of the structure shown.

How the values were obtained:
Factor XIa = Factor XIa (Homo sapiens (Human), UniProt P03951); experiment: Factor XIa enzyme inhibition assay (dose response, fluorogenic AMC substrate); format: biochemical; details: read-out: hFXIa IC50
How it was run: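 Fluorogenic progress curves (30 min, 1-min reads, 30° C) were recorded for 0.25 nM FXIa cleaving 50 μM Glp-Pro-Arg-AMC in Hepes pH 7.4 buffer with NaCl and Tween 20. Compounds were serially two-fold diluted, and IC50 was fitted with a Hill equation.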

[1] = Caco-2 cell permeability assay; format: in vitro ADME, human; details: human, 37° C.; for Papp A→B at 60 min, 10 μM: Caco-2, apical to basolateral; for Papp B→A at 40 min, 10 μM: Caco-2, basolateral to apical
How it was run: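 Caco-2 monolayers (days 21-25 post-seeding) received 10 μM compound in HBSS-MES pH 6.5 or HBSS-HEPES pH 7.4 (1% DMSO) at 37 °C, for 60 min A-B or 40 min B-A. Donor and receiver samples were quantified by HPLC-MS/MS (SRM), and Papp and recovery were calculated.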

[2] = Aqueous solubility in PBS by HPLC-UV/VIS; format: physicochemical; details: phosphate buffered saline, aqueous buffer, kinetic from dmso stock; PBS pH 7.4, 2% DMSO, 24 h at room temperature
Procedure: The following procedure was used to determine the aqueous solubility of a test compound in phosphate buffered saline (PBS-NaCl 137 mM, KCl 2.7 mM, Na2HPO4 8.1 mM, KH2PO4 1.5 mM, pH 7.4) in 96-well plate format by HPLC-UV/VIS analysis. The test compound was prepared at 200 μM in PBS from a 10 mM DMSO stock solution. The final DMSO concentration was 2%. The PBS buffer samples were mixed thoroughly followed by incubation at room temperature for 24 h. At the end of the incubation, the PBS buffer samples were centrifuged and supernatants analyzed by HPLC. The aqueous solubility (μM) of the test compound in PBS was determined by comparing the peak area of the principal peak in the calibration standard (200 μM) with the peak area of the corresponding peak in each of the PBS samples. The range of the assay was approximately 0.5 μM to 200 μM. The reference compounds used in each assay were metoprolol, rifampicin, ketoconazole, phenytoin, haloperidol, simvastatin, diethylstilbestrol, and tamoxifen ranking from fully soluble (200 μM) to poorly soluble (<1 μM).

Factor XIa, sequence (P03951 388-625): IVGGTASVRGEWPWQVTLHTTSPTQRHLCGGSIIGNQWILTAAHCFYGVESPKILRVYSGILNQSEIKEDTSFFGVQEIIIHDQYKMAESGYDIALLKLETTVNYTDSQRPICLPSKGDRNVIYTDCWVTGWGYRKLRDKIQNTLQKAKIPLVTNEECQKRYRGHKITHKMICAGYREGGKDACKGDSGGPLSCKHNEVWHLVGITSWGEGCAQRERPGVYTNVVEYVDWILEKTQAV
Factor XIa, sequence (P03951 19-387 partner): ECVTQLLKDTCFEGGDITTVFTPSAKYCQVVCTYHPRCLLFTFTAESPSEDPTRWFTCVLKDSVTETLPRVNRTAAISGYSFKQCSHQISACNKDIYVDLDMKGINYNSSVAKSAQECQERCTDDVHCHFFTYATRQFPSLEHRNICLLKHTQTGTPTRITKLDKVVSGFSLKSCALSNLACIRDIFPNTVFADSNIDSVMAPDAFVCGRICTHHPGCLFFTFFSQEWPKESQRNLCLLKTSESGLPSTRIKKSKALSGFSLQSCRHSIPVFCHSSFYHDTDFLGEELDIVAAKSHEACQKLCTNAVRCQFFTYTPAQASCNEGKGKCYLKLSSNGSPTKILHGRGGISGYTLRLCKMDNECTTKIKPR

Row | Compound | IC50 (Factor XIa) | Papp A→B at 60 min, 10 μM [1] | Papp B→A at 40 min, 10 μM [1] | solubility at 24 h [2]
1 | CC[C@@H](NC(=O)N1C(=O)[C@H](Cc2cc(C)nc(NC)c2)[C@H]1C(=O)N(C)c1nccn1C)c1cccc(Cl)c1 [Compound 1-46, (2S,3R)-3-((2-methylamino-6-methylpyridin-4-yl)methyl)-N2-(1-methyl-1H-imidazol-2-yl)-N1-((R)-1-(3-chlorophenyl)propyl)-N2-methyl-4-oxoazetidine-1,2-dicarboxamide] | < 10 nM | 11 to 30 ×10⁻⁶ cm/s | 11 to 30 ×10⁻⁶ cm/s | > 100 µM
2 | CC[C@@H](NC(=O)N1C(=O)[C@H](Cc2ccnc(N)c2)[C@H]1C(=O)N(C)c1ccn(C)n1)C1CCCCC1 [Compound 1-47, (2S,3R)-3-((2-aminopyridin-4-yl)methyl)-N2-(1-methyl-1H-pyrazol-3-yl)-N1-((R)-1-cyclohexylpropyl)-N2-methyl-4-oxoazetidine-1,2-dicarboxamide] | < 10 nM | < 10 ×10⁻⁶ cm/s | 31 to 50 ×10⁻⁶ cm/s | > 100 µM
3 | C[C@@H](NC(=O)N1C(=O)[C@H](Cc2ccnc(N)c2)[C@H]1C(=O)N(C)c1ccn(C)n1)C1CCCCC1 [Compound 1-50, (2S,3R)-3-((2-aminopyridin-4-yl)methyl)-N2-(1-methyl-1H-pyrazol-3-yl)-N1-((R)-1-cyclohexylethyl)-N2-methyl-4-oxoazetidine-1,2-dicarboxamide] | 10 to 100 nM | < 10 ×10⁻⁶ cm/s | 31 to 50 ×10⁻⁶ cm/s | > 100 µM
4 | CC[C@@H](NC(=O)N1C(=O)[C@H](Cc2cc(C)nc(N)c2)[C@H]1C(=O)N(C)c1nccn1C)c1ccccc1 [Compound 1-51, (2S,3R)-3-((2-amino-6-methylpyridin-4-yl)methyl)-N2-(1-methyl-1H-imidazol-2-yl)-N1-((R)-1-phenylpropyl)-N2-methyl-4-oxoazetidine-1,2-dicarboxamide] | < 10 nM | < 10 ×10⁻⁶ cm/s | 31 to 50 ×10⁻⁶ cm/s | > 100 µM
5 | CC[C@@H](NC(=O)N1C(=O)[C@H](Cc2ccnc(N)c2)[C@H]1C(=O)N(C)c1nccn1C)C1CCCCC1 [Compound 1-55, (2S,3R)-3-((2-aminopyridin-4-yl)methyl)-N2-(1-methyl-1H-imidazol-2-yl)-N1-((R)-1-cyclohexylpropyl)-N2-methyl-4-oxoazetidine-1,2-dicarboxamide] | < 10 nM | < 10 ×10⁻⁶ cm/s | 31 to 50 ×10⁻⁶ cm/s | > 100 µM
6 | CC(C)[C@@H](NC(=O)N1C(=O)[C@H](Cc2ccnc(N)c2)[C@H]1C(=O)N(C)c1ccn(C)n1)C1CCCCC1 [Compound 1-57, (2S,3R)-3-((2-aminopyridin-4-yl)methyl)-N2-(1-methyl-1H-pyrazol-3-yl)-N1-((R)-1-cyclohexyl-2-methylpropyl)-N2-methyl-4-oxoazetidine-1,2-dicarboxamide] | 10 to 100 nM | 11 to 30 ×10⁻⁶ cm/s | 11 to 30 ×10⁻⁶ cm/s | 10 to 100 µM (≈ 4.96 to 49.6 µg/mL)
7 | CN(C(=O)[C@@H]1[C@@H](Cc2ccnc(N)c2)C(=O)N1C(=O)N[C@@H](C1CCCCC1)C1CC1)c1ccn(C)n1 [Compound 1-58, (2S,3R)-3-((2-aminopyridin-4-yl)methyl)-N2-(1-methyl-1H-pyrazol-3-yl)-N1-((R)-cyclohexyl-cyclopropylmethyl)-N2-methyl-4-oxoazetidine-1,2-dicarboxamide] | < 10 nM | 11 to 30 ×10⁻⁶ cm/s | 11 to 30 ×10⁻⁶ cm/s | > 100 µM
8 | CC[C@@H](NC(=O)N1C(=O)[C@H](Cc2cc(C)nc(NC)c2)[C@H]1C(=O)N(C)c1ccnn1C)C1CCCCC1 [Compound 1-62, (2S,3R)-3-((2-methylamino-6-methylpyridin-4-yl)methyl)-N2-(1-methyl-1H-pyrazol-5-yl)-N1-((R)-1-cyclohexylpropyl)-N2-methyl-4-oxoazetidine-1,2-dicarboxamide] | 10 to 100 nM | 11 to 30 ×10⁻⁶ cm/s | 11 to 30 ×10⁻⁶ cm/s | > 100 µM
